Assay [1] addresses T1, VEGFR-2 (Homo sapiens, UniProt P35968).
T1 construct: purchased BPS Bioscience 40301
In words: Kinase-Glo Plus luminescence kinase inhibition assay, VEGFR-2. The following applies: 10 µM ATP, 30 °C, 40 min; mean ± SEM. Type of assay: biochemical. Here is the method:
(§1) The enzyme inhibition assay for the tested molecules was performed at BPS Bioscience Corporation, San Diego, CA, USA. The following materials served as the enzyme sources, Poly (Glu, Tyr) sodium salt (4:1, Glu:Tyr) (Sigma#P7244) served as the standardized substrate, and the Kinase-Glo Plus Luminescence kinase assay kit (Promega # V3772) was used. […] Glo Plus luminescence kinase assay kits. The assays were performed using Kinase-Glo Plus luminescence (Promega Corporation, Madison, WI, USA).
(§2) The tested molecules 9, 20, and indurbin were diluted to 100 µL in DMSO (10%), and 5 µL of the solution was added to a 50-µL enzyme reaction until the final concentration of DMSO was 1% in all of reactions. The enzymatic reactions were conducted at 30 °C for 40 min. The reaction mixture contained enzyme substrate and respective kinases. After the enzymatic reaction, 50 µL of enzyme-Glo Plus luminescence […] assay solution (Promega) was added to each reaction, and the plate was incubated for 5 min at room temperature. The luminescence signal was measured using a BioTek Synergy 2 microplate reader. The luminescence data were analyzed using the computer software GraphPad Prism. The difference between luminescence intensities in the absence of enzyme (Lut) and in the presence of enzyme (Luc) was defined as 100% activity (Lut − Luc). […] The IC50 value was determined using GraphPad Prism software. […]
(§3) Glo Plus luminescence kinase assay kits were used in these assays. […] The assay measures kinase activity by quantitating the amount of ATP remaining in the solution following kinase reaction. […] After the enzymatic reaction, 50 µL of Kinase-Glo Plus Luminescence kinase assay solution (Promega) was added to each reaction, and the plate was incubated for 5 min at room temperature. The luminescence signal was measured using a BioTek Synergy 2 microplate reader. […] The luminescence data were analyzed using the Graphpad Prism software.

The target of assay [2] is T2, CDK-4 (Homo sapiens, UniProt P11802).
T2 construct: purchased BPS Bioscience 79674
Briefly: Kinase-Glo Plus luminescence kinase inhibition assay, CDK-4. It counts as biochemical. The following applies: 10 µM ATP, 30 °C, 40 min; mean ± SEM. Here is the method:
as §1, §2, §3

T2 sequence (P11802 whole entry): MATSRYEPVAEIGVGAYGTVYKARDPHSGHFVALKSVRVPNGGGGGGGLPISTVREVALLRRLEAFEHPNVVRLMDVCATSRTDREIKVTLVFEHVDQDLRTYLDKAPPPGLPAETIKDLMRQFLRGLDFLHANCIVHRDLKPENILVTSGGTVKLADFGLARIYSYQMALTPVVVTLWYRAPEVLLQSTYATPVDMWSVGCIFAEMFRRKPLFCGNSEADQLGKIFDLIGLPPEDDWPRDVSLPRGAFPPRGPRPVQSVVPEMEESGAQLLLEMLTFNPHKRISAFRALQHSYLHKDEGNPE
T2 sequence (P30281 whole entry partner): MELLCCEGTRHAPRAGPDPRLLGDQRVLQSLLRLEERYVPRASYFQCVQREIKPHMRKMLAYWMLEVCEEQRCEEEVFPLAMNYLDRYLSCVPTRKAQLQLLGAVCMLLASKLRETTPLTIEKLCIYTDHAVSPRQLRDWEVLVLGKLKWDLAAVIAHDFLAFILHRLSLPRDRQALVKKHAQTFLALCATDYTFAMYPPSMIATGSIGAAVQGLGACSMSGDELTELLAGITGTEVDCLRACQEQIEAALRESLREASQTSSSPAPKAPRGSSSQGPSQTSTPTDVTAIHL
T1 sequence (P35968 20-1356): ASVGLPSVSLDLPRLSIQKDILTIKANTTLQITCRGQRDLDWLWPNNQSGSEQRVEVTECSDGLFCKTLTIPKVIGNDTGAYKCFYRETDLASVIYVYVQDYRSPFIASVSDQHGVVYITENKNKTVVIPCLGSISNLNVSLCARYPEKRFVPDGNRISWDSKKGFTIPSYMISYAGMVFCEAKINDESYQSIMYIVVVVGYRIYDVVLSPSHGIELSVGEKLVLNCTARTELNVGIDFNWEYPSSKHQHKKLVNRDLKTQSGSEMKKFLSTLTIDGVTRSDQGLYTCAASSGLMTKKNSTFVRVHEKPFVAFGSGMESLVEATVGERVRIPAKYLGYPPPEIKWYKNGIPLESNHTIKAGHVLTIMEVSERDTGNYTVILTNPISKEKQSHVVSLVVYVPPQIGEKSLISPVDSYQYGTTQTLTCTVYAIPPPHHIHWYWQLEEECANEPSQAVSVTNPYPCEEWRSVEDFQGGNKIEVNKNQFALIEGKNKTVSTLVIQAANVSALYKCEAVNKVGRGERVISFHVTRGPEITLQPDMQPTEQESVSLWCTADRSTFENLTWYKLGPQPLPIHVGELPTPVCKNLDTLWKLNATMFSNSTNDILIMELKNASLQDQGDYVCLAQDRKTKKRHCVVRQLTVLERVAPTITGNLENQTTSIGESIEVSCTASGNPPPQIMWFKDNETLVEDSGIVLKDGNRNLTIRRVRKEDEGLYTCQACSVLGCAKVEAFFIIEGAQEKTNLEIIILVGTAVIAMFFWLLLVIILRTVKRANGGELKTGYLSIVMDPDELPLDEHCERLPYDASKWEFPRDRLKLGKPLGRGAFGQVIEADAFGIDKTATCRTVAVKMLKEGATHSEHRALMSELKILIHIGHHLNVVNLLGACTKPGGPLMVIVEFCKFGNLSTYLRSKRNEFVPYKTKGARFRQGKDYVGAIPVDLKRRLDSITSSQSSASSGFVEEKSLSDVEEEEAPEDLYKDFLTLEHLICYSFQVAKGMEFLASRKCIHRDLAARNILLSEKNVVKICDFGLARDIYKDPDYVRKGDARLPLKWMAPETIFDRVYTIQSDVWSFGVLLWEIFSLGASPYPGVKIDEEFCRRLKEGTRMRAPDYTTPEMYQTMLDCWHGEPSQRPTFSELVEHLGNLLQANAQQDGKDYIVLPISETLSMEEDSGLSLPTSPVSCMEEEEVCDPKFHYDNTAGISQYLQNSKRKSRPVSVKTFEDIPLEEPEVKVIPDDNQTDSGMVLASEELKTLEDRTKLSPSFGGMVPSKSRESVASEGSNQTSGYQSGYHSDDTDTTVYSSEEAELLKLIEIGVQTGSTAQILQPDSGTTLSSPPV

Turning to `O=C1Nc2ccc(Cl)cc2C1=Nc1ccc2nc[nH]c(=O)c2c1` [Compound 9, 6-(5-Chloro-2-oxo-1,2-dihydro-indol-3-ylideneamino)-3H-quinazolin-4-one], the values for the IC50 in assay [1] and in assay [2] were 56.7 ± 4.3 nM and 36.4 ± 4.52 nM, respectively.

`O=C1Nc2ccc(Cl)cc2C1=Nc1ccc(-c2nc3ccccc3c(=O)[nH]2)cc1` [Compound 20, 2-[4-(5-Chloro-2-oxo-1,2-dihydro-indol-3-ylideneamino)-phenyl]-3H-quinazolin-4-one]: the IC50 was determined as 14.3 ± 2.7 nM in assay [1] and 244 ± 12.2 nM in assay [2].

For the origin of these results see PMC11901902, “Design, Synthesis, and Cytotoxicity Evaluation of Novel Indolin-2-One Based Molecules on Hepatocellular Carcinoma HepG2 Cells as Protein Kinase Inhibitors” (Molecules, 2025).
